What was measured:
SARS-CoV-2 3CLpro = SARS-CoV-2 3CLpro (Severe acute respiratory syndrome coronavirus 2 (2019-nCoV) (SARS-CoV-2), UniProt P0DTD1); assay: biochemical; type: biochemical; settings: read-out: IC50
CRFK cells = settings: cat

| SMILES | IC50 (SARS-CoV-2 3CLpro) [nM] | CC50 (CRFK cells) [nM] |
| --- | --- | --- |
| CCCCCC12CCC(COC(=O)N[C@@H](CC(C)C)C(=O)N[C@H](C=O)C[C@@H]3CCNC3=O)(CC1)CC2 [Compound 2i, (4-Pentylbicyclo[2.2.2]octan-1-yl)methyl ((S)-4-methyl-1-oxo-1-(((S)-1-oxo-3-((S)-2-oxopyrrolidin-3-yl)propan-2-yl)amino)pentan-2-yl)carbamate] | 270 ± 20 | – |
| CC(C)C[C@H](NC(=O)OCC12CC3CC(CC(C3)C1)C2)C(=O)N[C@H](C=O)C[C@H]1CCNC1=O [Compound 2l, ((3S,5S,7S)-Adamantan-1-yl)methyl-d2 ((S)-4-methyl-1-oxo-1-(((S)-1-oxo-3-((S)-2-oxopyrrolidin-3-yl)propan-2-yl)amino)pentan-2-yl)carbamate] | 290 ± 40 | – |
| CC(C)C[C@H](NC(=O)OC[C@@]12C[C@@H]3C[C@@H](C[C@@](O)(C3)C1)C2)C(=O)N[C@H](C=O)C[C@@H]1CCNC1=O [Compound 2o, ((1r,3R,5R,7S)-3-Hydroxyadamantan-1-yl)methyl-d2 ((S)-4-methyl-1-oxo-1-(((S)-1-oxo-3-((S)-2-oxopyrrolidin-3-yl)propan-2-yl)amino)pentan-2-yl)carbamate] | 740 ± 260 | – |
| CCCCCC12CCC(COC(=O)N[C@@H](CC(C)C)C(=O)N[C@@H](C[C@@H]3CCNC3=O)C(O)S(=O)(=O)O)(CC1)CC2 (stereo partly drawn) [Compound 3i, Sodium (2S)-1-hydroxy-2-((S)-4-methyl-2-((((4-pentylbicyclo[2.2.2]octan-1-yl)methoxy)carbonyl)amino)pentanamido)-3-((S)-2-oxopyrrolidin-3-yl)propane-1-sulfonate] | 300 ± 20 | – |
| [2H]C([2H])(OC(=O)N[C@@H](CC(C)C)C(=O)N[C@@H](C[C@@H]1CCNC1=O)C(O)S(=O)(=O)[O-])C12CCC(CCCCC)(CC1)CC2.[Na+] (stereo partly drawn) [Compound 3j, Sodium (2S)-1-hydroxy-2-((S)-4-methyl-2-((((4-pentylbicyclo[2.2.2]octan-1-yl)methoxy-d2)carbonyl)amino)pentanamido)-3-((S)-2-oxopyrrolidin-3-yl)propane-1-sulfonate] | 310 ± 60 | – |
| CC(C)C[C@H](NC(=O)OCC12CC3CC(CC(C3)C1)C2)C(=O)N[C@@H](C[C@H]1CCNC1=O)C(O)S(=O)(=O)O (stereo partly drawn) [Compound 3l, Sodium (2S)-2-((S)-2-(((((3S,5S,7S)-adamantan-1-yl)methoxy-d2)carbonyl)amino)-4-methylpentanamido)-1-hydroxy-3-((S)-2-oxopyrrolidin-3-yl)propane-1-sulfonate] | 270 ± 40 | – |
| CC(C)C[C@H](NC(=O)OCC12CC3CC(CC(O)(C3)C1)C2)C(=O)N[C@@H](C[C@H]1CCNC1=O)C(O)S(=O)(=O)O (stereo partly drawn) [Compound 3o, Sodium (2S)-1-hydroxy-2-((S)-2-(((((1r,3R,5R,7S)-3-hydroxyadamantan-1-yl)methoxy-d2)carbonyl)amino)-4-methylpentanamido)-3-((S)-2-oxopyrrolidin-3-yl)propane-1-sulfonate] | 780 ± 180 | – |
| CC(C)C[C@H](NC(=O)OC1CC2(C1)CN(S(C)(=O)=O)C2)C(=O)N[C@H](C=O)C[C@H]1CCNC1=O [Compound 4b, 2-(Methylsulfonyl)-2-azaspiro[3.3]heptan-6-yl ((S)-4-methyl-1-oxo-1-(((S)-1-oxo-3-((R)-2-oxopyrrolidin-3-yl)propan-2-yl)amino)pentan-2-yl)carbamate] | – | > 100000 |
| CC(C)C[C@H](NC(=O)OC1CC2(C1)CN(S(C)(=O)=O)C2)C(=O)N[C@@H](C[C@H]1CCNC1=O)C(O)S(=O)(=O)O (stereo partly drawn) [Compound 4c, Sodium (2S)-1-hydroxy-2-((S)-4-methyl-2-((((2-(methylsulfonyl)-2-azaspiro[3.3]heptan-6-yl)oxy)carbonyl)amino)pentanamido)-3-((R)-2-oxopyrrolidin-3-yl)propane-1-sulfonate] | – | > 100000 |
| CC(C)C[C@H](NC(=O)OC1CC2(CCN(C(=O)OC(C)(C)C)C2)C1)C(=O)N[C@H](C=O)C[C@H]1CCNC1=O (stereo partly drawn) [Compound 5b, Tert-butyl 2-((((S)-4-methyl-1-oxo-1-(((S)-1-oxo-3-((R)-2-oxopyrrolidin-3-yl)propan-2-yl)amino)pentan-2-yl)carbamoyl)oxy)-6-azaspiro[3.4]octane-6-carboxylate] | – | > 100000 |
| CC(C)C[C@H](NC(=O)OC1CC2(CCN(C(=O)OC(C)(C)C)C2)C1)C(=O)N[C@@H](C[C@H]1CCNC1=O)C(O)S(=O)(=O)O (stereo partly drawn) [Compound 5c, Sodium (2S)-2-((S)-2-((((6-(tert-butoxycarbonyl)-6-azaspiro[3.4]octan-2-yl)oxy)carbonyl)amino)-4-methylpentanamido)-1-hydroxy-3-((R)-2-oxopyrrolidin-3-yl)propane-1-sulfonate] | – | > 100000 |
| CC(C)C[C@H](NC(=O)OC1CCC2(C1)CN(C(=O)OC(C)(C)C)C2)C(=O)N[C@H](C=O)C[C@H]1CCNC1=O (stereo partly drawn) [Compound 6b, Tert-butyl 6-((((S)-4-methyl-1-oxo-1-(((S)-1-oxo-3-((R)-2-oxopyrrolidin-3-yl)propan-2-yl)amino)pentan-2-yl)carbamoyl)oxy)-2-azaspiro[3.4]octane-2-carboxylate] | – | > 100000 |
| CC(C)C[C@H](NC(=O)OC1CCC2(C1)CN(C(=O)OC(C)(C)C)C2)C(=O)N[C@@H](C[C@H]1CCNC1=O)C(O)S(=O)(=O)O (stereo partly drawn) [Compound 6c, Sodium (2S)-2-((2S)-2-((((2-(tert-butoxycarbonyl)-2-azaspiro[3.4]octan-6-yl)oxy)carbonyl)amino)-4-methylpentanamido)-1-hydroxy-3-((R)-2-oxopyrrolidin-3-yl)propane-1-sulfonate] | – | > 100000 |
| CC(C)C[C@H](NC(=O)OC1CC2(CCN(C(=O)C(C)C)CC2)C1)C(=O)N[C@H](C=O)C[C@H]1CCNC1=O [Compound 8b, 7-Isobutyryl-7-azaspiro[3.5]nonan-2-yl ((S)-4-methyl-1-oxo-1-(((S)-1-oxo-3-((R)-2-oxopyrrolidin-3-yl)propan-2-yl)amino)pentan-2-yl)carbamate] | – | > 100000 |
| CC(C)C[C@H](NC(=O)OC1CC2(CCN(C(=O)C(C)C)CC2)C1)C(=O)N[C@@H](C[C@H]1CCNC1=O)C(O)S(=O)(=O)O (stereo partly drawn) [Compound 8c, Sodium (2S)-1-hydroxy-2-((S)-2-((((7-isobutyryl-7-azaspiro[3.5]nonan-2-yl)oxy)carbonyl)amino)-4-methylpentanamido)-3-((R)-2-oxopyrrolidin-3-yl)propane-1-sulfonate] | – | > 100000 |
| CC(C)C[C@H](NC(=O)OC1CC2(CCN(C#N)CC2)C1)C(=O)N[C@H](C=O)C[C@H]1CCNC1=O [Compound 11b, 7-Cyano-7-azaspiro[3.5]nonan-2-yl ((S)-4-methyl-1-oxo-1-(((S)-1-oxo-3-((R)-2-oxopyrrolidin-3-yl)propan-2-yl)amino)pentan-2-yl)carbamate] | – | > 100000 |
| CC(C)C[C@H](NC(=O)OC1CC2(CCN(C#N)CC2)C1)C(=O)N[C@@H](C[C@H]1CCNC1=O)C(O)S(=O)(=O)O (stereo partly drawn) [Compound 11c, Sodium (2S)-2-((S)-2-((((7-cyano-7-azaspiro[3.5]nonan-2-yl)oxy)carbonyl)amino)-4-methylpentanamido)-1-hydroxy-3-((R)-2-oxopyrrolidin-3-yl)propane-1-sulfonate] | – | > 100000 |
| CC(C)C[C@H](NC(=O)OC1CN(C(=O)OC(C)(C)C)C1)C(=O)N[C@H](C=O)C[C@H]1CCNC1=O [Compound 12b, Tert-butyl 3-((((S)-4-methyl-1-oxo-1-(((S)-1-oxo-3-((R)-2-oxopyrrolidin-3-yl)propan-2-yl)amino)pentan-2-yl)carbamoyl)oxy)azetidine-1-carboxylate] | – | > 100000 |

From US20240307419A1, “CONFORMATIONALLY-CONSTRAINED INHIBITORS OF 3C OR 3C-LIKE PROTEASES” (priority 2021, published 2024)
